Our source for the EC50 values is patent US9090576B2, “2-substituted-p-quinone derivatives for treatment of oxidative stress diseases” (Edison Pharmaceuticals, Inc., priority 2008, dated 2015).

SMILES strings stand for the structures. Some results are limits rather than exact numbers.

As usually defined, the EC50 is the concentration giving half of the maximal effect.

Holding throughout (format): cell-based
Experiment [1] has as its system Human dermal fibroblasts from Friedreich's Ataxia patients. The experiment in a line: Rescue of BSO-stressed FRDA fibroblasts (Calcein AM viability). Particulars: BSO-stressed FRDA fibroblasts (GM04078), less than about 150 nM, read-out: EC50, protection against FRDA. How it is done: An initial screen was performed to identify compounds effective for the amelioration of redox disorders. Test samples, 4 reference compounds (Idebenone, decylubiquinone, Trolox and α-tocopherol acetate), and solvent controls were tested for their ability to rescue FRDA fibroblasts stressed by addition of L-buthionine-(S,R)-sulfoximine (BSO), as described in Jauslin et al., Hum. Mol. Genet. 11(24):3055 (2002), Jauslin et al., FASEB J. 17:1972-4 (2003), and International Patent Application WO 2004/003565. […] This specific BSO-mediated cell death can be prevented by administration of antioxidants or molecules involved in the antioxidant pathway, such as α-tocopherol, selenium, or small molecule glutathione peroxidase mimetics. However, antioxidants differ in their potency, i.e. the concentration at which they are able to rescue BSO-stressed FRDA fibroblasts.
MEM (a medium enriched in amino acids and vitamins, catalog no. 1-31F24-I) and Medium 199 (M199, catalog no. 1-21F22-I) with Earle's Balanced Salts, without phenol red, were purchased from Bioconcept. Fetal Calf Serum was obtained from PAA Laboratories. Basic fibroblast growth factor and epidermal growth factor were purchased from PeproTech. Penicillin-streptomycin-glutamine mix, L-buthionine (S,R)-sulfoximine, (+)-α-tocopherol acetate, decylubiquinone, and insulin from bovine pancreas were purchased from Sigma. Trolox (6-hydroxy-2,5,7,8-tetramethylchromane-2-carboxylic acid) was obtained from Fluka. Idebenone was obtained from Chemo Iberica. Calcein AM was purchased from Molecular Probes. Cell culture medium was made by combining 125 ml M199 EBS, 50 ml Fetal Calf Serum, 100 U/ml penicillin, 100 μg/ml streptomycin, 2 mM glutamine, 10 μg/ml insulin, 10 ng/ml EGF, and 10 ng/ml bFGF; MEM EBS was added to make the volume up to 500 ml. A 10 mM BSO solution was prepared by dissolving 444 mg BSO in 200 ml of medium with subsequent filter-sterilization. During the course of the experiments, this solution was stored at +4° C. The cells were obtained from the Coriell Cell Repositories (Camden, N.J.; repository number GM04078) and grown in 10 cm tissue culture plates. Every third day, they were split at a 1:3 ratio.
The test samples were supplied in 1.5 ml glass vials. The compounds were diluted with DMSO, ethanol or PBS to result in a 5 mM stock solution. Once dissolved, they were stored at −20° C. Reference antioxidants (Idebenone, decylubiquinone, α-tocopherol acetate and trolox) were dissolved in DMSO.
Test samples were screened according to the following protocol:
(§1) A culture with FRDA fibroblasts was started from a 1 ml vial with approximately 500,000 cells stored in liquid nitrogen. Cells were propagated in 10 cm cell culture dishes by splitting every third day in a ratio of 1:3 until nine plates were available. Once confluent, fibroblasts were harvested. For 54 micro titer plates (96 well-MTP) a total of 14.3 million cells (passage eight) were re-suspended in 480 ml medium, corresponding to 100 μl medium with 3,000 cells/well. The remaining cells were distributed in 10 cm cell culture plates (500,000 cells/plate) for propagation. The plates were incubated overnight at 37° C. in an atmosphere with 95% humidity and 5% CO2 to allow attachment of the cells to the culture plate.
(§2) MTP medium (243 μl) was added to a well of the microtiter plate. The test compounds were unfrozen, and 7.5 μl of a 5 mM stock solution was dissolved in the well containing 243 μl medium, resulting in a 150 μM master solution. Serial dilutions from the master solution were made. The period between the single dilution steps was kept as short as possible (generally less than 1 second).
Plates were kept overnight in the cell culture incubator. The next day, 10 μl of a 10 mM BSO solution were added to the wells, resulting in a 1 mM final BSO concentration. Forty-eight hours later, three plates were examined under a phase-contrast microscope to verify that the cells in the 0% control (wells E1-H1) were clearly dead. […]

Experiment [2] has as its system human dermal fibroblasts from LHON patients. As to the kind of experiment: Rescue of BSO-stressed fibroblasts from LHON patients (screen as Example A). The settings on record: Fibroblast, BSO-stressed LHON fibroblasts (GM03858), less than about 150 nM, read-out: EC50, protection against LHON. How it is done:
as §1, §2
(§3) Plates were kept overnight in the cell culture incubator. The next day, 10 μl of a 10 mM BSO solution were added to the wells, resulting in a 1 mM final BSO concentration. Forty-eight hours later, three plates were examined under a phase-contrast microscope to verify that the cells in the 0% control (wells E1-H1) were clearly dead. The medium from all plates was discarded, and the remaining liquid was removed by gently tapping the plate inversed onto a paper towel.
(§4) 100 μl of PBS containing 1.2 μM Calcein AM were then added to each well. The plates were incubated for 50-70 minutes at room temperature. After that time the PBS was discarded, the plate gently tapped on a paper towel and fluorescence (excitation/emission wavelengths of 485 nm and 525 nm, respectively) was read on a Gemini fluorescence reader. Data was imported into Microsoft Excel (EXCEL is a registered trademark of Microsoft Corporation for a spreadsheet program) and used to calculate the EC50 concentration for each compound.
Compounds of the invention were screened as described in Example A, but substituting FRDA cells with Leber's Hereditary Optic Neuropathy (LHON) cells obtained from the Coriell Cell Repositories (Camden, N.J.; repository number GM03858). The compounds were tested for their ability to rescue human dermal fibroblasts from LHON patients from oxidative stress.

The subject of experiment [3] is human dermal fibroblasts from Huntington's patients. The experiment in a line: Rescue of BSO-stressed fibroblasts from Huntington's patients (screen as Example A). Particulars: Fibroblast, BSO-stressed Huntington's fibroblasts (GM 04281), less than about 150 nM, read-out: EC50, protection against Huntington's. As for the experimental part:
as §1, §2, §3, §4
Compounds of the invention were tested using the screen as described in Example A, but substituting FRDA cells with Huntington's cells obtained from the Coriell Cell Repositories (Camden, N.J.; repository number GM 04281). The compounds were tested for their ability to rescue human dermal fibroblasts from Huntington's patients from oxidative stress.

Consider `CC1=C(C)C(=O)C(CCNC(=O)NCCN2CCOCC2)=C(C)C1=O` [1-(2-morpholinoethyl)-3-(2-(2,4,5-trimethyl-3,6-dioxocyclohexa-1,4-dienyl)ethyl)urea], for which the EC50 in experiment [1], in experiment [2] and in experiment [3] was less than 0.15 µM in each case.

For `CCNC(=O)NCCC1=C(CCC(C)(C)O)C(=O)C(C)=C(C)C1=O` [1-Ethyl-3-(2(2-(3-hydroxy-3-methylbutyl)-4,5-dimethyl-3,6-dioxocyclohexa-1,4-dienyl)ethyl)urea], the concentration for a half-maximal effect (EC50) in experiment [1], in experiment [2] and in experiment [3] was less than 0.15 µM in each case.

As to `CC1=C(C)C(=O)C(CCN(C)C(=O)Cc2ccc(Cl)cc2)=C(C)C1=O` [2-(4-chlorophenyl)-N-methyl-N-(2-(2,4,5-trimethyl-3,6-dioxocyclohexa-1,4-dienyl)ethyl)acetamide], the EC50 in experiment [1], in experiment [2] and in experiment [3] was less than 0.15 µM each time.

Turning to `CC1=C(C)C(=O)C(CCC(C)C(=O)NCCc2ccccc2)=C(C)C1=O` (stereo not drawn) [2-methyl-N-phenethyl-4-(2,4,5-trimethyl-3,6-dioxocyclohexa-1,4-dienyl)butanamide], the EC50 in experiment [1], in experiment [2] and in experiment [3] was less than 0.15 µM throughout.

Consider `CC1=C(C)C(=O)C(CCN(C)C(=O)NCCN(C)C)=C(C)C1=O` [3-(2-(dimethylamino)ethyl)-1-methyl-1-(2-(2,4,5-trimethyl-3,6-dioxocyclohexa-1,4-dienyl)ethyl)urea], for which the EC50 in experiment [1], in experiment [2] and in experiment [3] was less than 0.15 µM each time.

With `CC(=O)c1ccc(C(=O)NCCC2=C(C)C(=O)C(C)=C(C)C2=O)cc1` [4-acetyl-N-(2-(2,4,5-trimethyl-3,6-dioxocyclohexa-1,4-dienyl)ethyl)benzamide], the EC50 in experiment [1], in experiment [2] and in experiment [3] was less than 0.15 µM throughout.

Turning to `CC(=O)N1CCN(C(=O)NCCC2=C(C)C(=O)C(C)=C(C)C2=O)CC1` [4-acetyl-N-(2-(2,4,5-trimethyl-3,6-dioxocyclohexa-1,4-dienyl)ethyl)piperazine-1-carboxamide], the EC50 in experiment [2] and in experiment [3] was less than 0.15 µM in each case.

For the compound `CC1=C(C)C(=O)C(CCNC(=O)c2ccc(C)cc2)=C(C)C1=O` [4-methyl-N-(2-(2,4,5-trimethyl-3,6-dioxocyclohexa-1,4-dienyl)ethyl)benzamide], the EC50 in experiment [1], in experiment [2] and in experiment [3] was less than 0.15 µM throughout.

In the case of `CC1=C(C)C(=O)C(CCNC(=O)N2CCN(C)CC2)=C(C)C1=O` [4-methyl-N-(2-(2,4,5-trimethyl-3,6-dioxocyclohexa-1,4-dienyl)ethyl)piperazine-1-carboxamide], the EC50 in experiment [1], in experiment [2] and in experiment [3] was less than 0.15 µM in each case.

Consider `CC1=C(C)C(=O)C(CCC(C)(C)O)=C(CCNC(=O)CCCCC2CCSS2)C1=O` (stereo not drawn) [5-(1,2-Dithiolan-3-yl)-N-(2-(2-(3-hydroxy-3-methylbutyl)-4,5-dimethyl-3,6-dioxocyclohexa-1,4-dienyl)ethyl)pentanamide], for which the EC50 in experiment [1], in experiment [2] and in experiment [3] was less than 0.15 µM in each case.

Take `CC1=C(C)C(=O)C(CCNC(=O)c2ccccc2)=C(C)C1=O` [N-(2-(2,4,5-trimethyl-3,6-dioxocyclohexa-1,4-dienyl)ethyl)benzamide]: the EC50 in experiment [1], in experiment [2] and in experiment [3] was less than 0.15 µM throughout.

Turning to `CCCCCC(=O)NCCC1=C(CCC(C)(C)O)C(=O)C(C)=C(C)C1=O` [N-(2-(2-(3-Hydroxy-3-methylbutyl)-4,5-dimethyl-3,6-dioxocyclohexa-1,4-dienyl)ethyl)hexanamide], the EC50 in experiment [2] and in experiment [3] was less than 0.15 µM throughout.

On to `CC1=C(C)C(=O)C(CCC(C)(C)O)=C(CCNS(=O)(=O)c2ccc(C)cc2)C1=O` [N-(2-(2-(3-hydroxy-3-methylbutyl)-4,5-dimethyl-3,6-dioxocyclohexa-1,4-dienyl)ethyl)-4-methylbenzenesulfonamide], for which the EC50 in experiment [1], in experiment [2] and in experiment [3] was less than 0.15 µM in each case.

On to `CC1=C(C)C(=O)C(CCC(C)(C)O)=C(CCNC(=O)c2ccccc2)C1=O` [N-(2-(2-(3-hydroxy-3-methylbutyl)-4,5-dimethyl-3,6-dioxocyclohexa-1,4-dienyl)ethyl)-benzamide], for which the EC50 in experiment [1], in experiment [2] and in experiment [3] was less than 0.15 µM each time.

For `CC1=C(C)C(=O)C(CCC(C)(C)O)=C(CCNS(C)(=O)=O)C1=O` [N-(2-(2-(3-hydroxy-3-methylbutyl)-4,5-dimethyl-3,6-dioxocyclohexa-1,4-dienyl)ethyl)methanesulfonamide], the EC50 in experiment [1], in experiment [2] and in experiment [3] was less than 0.15 µM each time.

Consider `CC1=C(C)C(=O)C(CCCC(=O)NCCc2ccccn2)=C(C)C1=O` [N-(2-(pyridin-2-yl)ethyl)-4-(2,4,5-trimethyl-3,6-dioxocyclohexa-1,4-dienyl)butanamide], for which the EC50 in experiment [2] and in experiment [3] was less than 0.15 µM each time.

With `CC1=C(C)C(=O)C(CCCC(=O)NCCc2ccncc2)=C(C)C1=O` [N-(2-(pyridin-4-yl)ethyl)-4-(2,4,5-trimethyl-3,6-dioxocyclohexa-1,4-dienyl)butanamide], the EC50 in experiment [1], in experiment [2] and in experiment [3] was less than 0.15 µM in each case.

Regarding `CC1=C(C)C(=O)C(CCCC(=O)Nc2ccccc2N)=C(C)C1=O` [N-(2-aminophenyl)-4-(2,4,5-trimethyl-3,6-dioxocyclohexa-1,4-dienyl)butanamide], the EC50 in experiment [1], in experiment [2] and in experiment [3] was less than 0.15 µM each time.

Regarding `CC1=C(C)C(=O)C(CCCC(=O)Nc2ccccc2C#N)=C(C)C1=O` [N-(2-cyanophenyl)-4-(2,4,5-trimethyl-3,6-dioxocyclohexa-1,4-dienyl)butanamide], the EC50 in experiment [1], in experiment [2] and in experiment [3] was less than 0.15 µM each time.
